Measured values as given in patent US9988373B2, “Nitrogen-containing six-membered cyclic derivatives and pharmaceutical composition comprising the same” (SHIONOGI & CO., LTD., priority 2013, dated 2018).

Target: T1, human P2X7 receptor (Homo sapiens, UniProt Q99572, R270H)
T1 construct: expressed in transfected cells
T1 sequence (Q99572 1-595 R270H): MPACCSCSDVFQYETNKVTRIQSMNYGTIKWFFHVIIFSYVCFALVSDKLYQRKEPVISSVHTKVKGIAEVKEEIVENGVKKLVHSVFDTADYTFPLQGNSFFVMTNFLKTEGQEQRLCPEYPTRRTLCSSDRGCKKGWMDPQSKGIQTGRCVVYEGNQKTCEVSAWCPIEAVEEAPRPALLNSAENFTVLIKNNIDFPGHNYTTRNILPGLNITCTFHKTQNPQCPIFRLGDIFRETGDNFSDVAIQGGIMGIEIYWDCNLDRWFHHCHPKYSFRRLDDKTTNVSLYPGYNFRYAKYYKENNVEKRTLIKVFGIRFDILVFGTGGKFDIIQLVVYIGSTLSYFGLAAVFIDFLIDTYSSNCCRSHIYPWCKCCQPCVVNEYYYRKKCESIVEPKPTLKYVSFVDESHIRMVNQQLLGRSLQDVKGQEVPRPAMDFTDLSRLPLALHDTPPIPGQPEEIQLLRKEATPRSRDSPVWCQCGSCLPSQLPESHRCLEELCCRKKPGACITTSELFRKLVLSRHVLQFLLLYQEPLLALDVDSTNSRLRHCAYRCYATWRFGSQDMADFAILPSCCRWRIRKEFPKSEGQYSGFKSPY
Experiment: Evaluation of a human P2X7 receptor inhibitory activity (Yo-Pro uptake, BzATP stimulation, FLIPR TETRA)
Assay type: cell-based
Conditions: antagonistic activity for the human P2X7 receptor, 1321N1 cell transfected with the human P2X7 receptor gene, Yo-Pro fluorescence
Procedure: Test Example 1 Evaluation of a Human P2X7 Receptor Inhibitory Activity
Stably expressing cell line (1321N1 cell transfected with the human P2X7 receptor gene (GenBank accession number NM_002562.5 including T606C and G952A SNP)) was used. The cells were seeded in a 384-well microtiter plate at a concentration of 8000 cells/well and cultured in the medium (10% fetal bovine serum, 25 mM HEPES, 1% penicillin and streptomycin in DMEM) for one day at 37° C. under 5% carbon dioxide atmosphere. After replacing with 20 μL of the HBSS buffer (20 mM HEPES. 55.6 mM D-glucose, 1×HBSS(−), pH 7.4-7.5), 15 μL of 17.3 μM Yo-Pro solution in the HBSS buffer was added. The plate was placed in high-throughput cellular screening system FLIPR TETRA (Molecullar Devices, LLC.) and 15 μL of 130 μM BzATP solution in the HBSS buffer was added. Measurement of fluorescence intensity by FLIPR TETRA was started. After eight minutes, 15 μL of DMSO solutions containing different concentrations of the compound of the present invention as prepared by dilution with the HBSS buffer were dispensed to each well through the built-in automatic dispenser, and the measurement of fluorescence intensity was continued for 20 minutes. The maximum fluorescence intensity without the compound of the present invention is calculated as 0% inhibition and the maximum fluorescence intensity when the reference compound was added is calculated as 100% inhibition. Changing values of fluorescence intensity by the compound of the present invention were calculated by difference between maximum and minimum fluorescence intensity for 20 minutes. Inhibition ratios (%) were calculated from the following equation:
[formula] IC50 was calculated using logistic approximation.

Compared with `O=c1cnn(Cc2ccccc2)c(-c2cccc(C(F)(F)F)c2Cl)c1` [III-002], `Nc1cn(Cc2ccccc2)c(-c2cccc(C(F)(F)F)c2Cl)nc1=O` [II-045] is 2.5-fold higher in IC50: 0.11 µM for the first, 0.27 µM for the second. The first is the more potent here.

`O=c1nc(-c2cccc(C(F)(F)F)c2Cl)n(Cc2ccccc2)cc1F` [II-031] and `O=c1cc(-c2cccc(C(F)(F)F)c2Cl)n(Cc2ccccc2F)cc1Br` [Compound I-001] are within 1.5-fold of each other in IC50: 0.058 µM for the first, 0.067 µM for the second.

For `O=c1ccn(Cc2cccc3ccsc23)c(-c2cccc(C(F)(F)F)c2Cl)c1` [Compound I-048], the IC50 was 0.11 µM.

Same assay, conditions: antagonistic activity for the human P2X7 receptor, 1321N1 cell transfected with the human P2X7 receptor gene, Yo-Pro fluorescence, class symbols

`O=c1ccn(Cc2ccc(C(F)(F)F)cc2)c(-c2cccc(C(F)(F)F)c2Cl)c1` [Compound I-052] and `O=c1ccn(Cc2cccc(C(F)(F)F)c2)c(-c2cccc(C(F)(F)F)c2Cl)c1` [Compound I-050] fall in the same range of IC50: 1 to 10 µM for the first, 1 to 10 µM for the second.

Compared with `N#CCn1cc(-c2ccccc2)c(=O)nc1-c1cccc(C(F)(F)F)c1Cl` [II-050], `N#CCNc1cn(Cc2ccccc2)c(-c2cccc(C(F)(F)F)c2Cl)nc1=O` [II-043] is lower in IC50: 0.1 to 0.5 µM for the first, 0.05 to 0.1 µM for the second. The second is the more potent here.

First: CC(C)NC(=O)Nc1cccc(Cn2cc(Br)c(=O)cc2-c2cccc(C(F)(F)F)c2Cl)c1 [Compound I-012]
Second: CC(C)NC(=O)Nc1cccc(Cn2ccc(=O)cc2-c2cccc(C(F)(F)F)c2Cl)c1 [Compound I-037]
The IC50 of the first is higher: 0.5 to 1 µM for the first, 0.1 to 0.5 µM for the second.

`CN(C)CCOc1cn(Cc2ccccc2)c(-c2cccc(C(F)(F)F)c2Cl)nc1=O` [II-028] and `NCCOc1cn(Cc2ccccc2)c(-c2cccc(C(F)(F)F)c2Cl)nc1=O` [II-027] fall in the same range of IC50: 0.5 to 1 µM for the first, 0.5 to 1 µM for the second.

Compared with `COc1cn(Cc2ccccc2C)c(-c2cccc3ncccc23)nc1=O` [II-002], `COc1cn(Cc2ccccc2C)c(-c2ccccc2C(F)(F)F)nc1=O` [II-064] is lower in IC50: 1 to 10 µM for the first, 0.5 to 1 µM for the second.

Compared with `O=c1ccn(Cc2cccnc2)c(-c2cccc(C(F)(F)F)c2Cl)c1` [Compound I-053], `Cc1cccc(Cn2ccc(=O)cc2-c2cccc(C(F)(F)F)c2Cl)c1` [Compound I-028] is lower in IC50: 0.5 to 1 µM for the first, 0.1 to 0.5 µM for the second. The second is the more potent here.

First: COc1cn(Cc2ccccc2)c(-c2cnn(Cc3ccccc3)c2)nc1=O [II-070]
Second: O=c1nc(-c2cccc(C(F)(F)F)c2Cl)n(Cc2ccccc2)cc1OCc1ccccc1 [II-023]
The IC50 of the first is higher: 1 to 10 µM for the first, less than 0.05 µM for the second. The second is the more potent here.

First: CC(=O)c1cn(Cc2cccc(C#N)c2)c(-c2cccc(C(F)(F)F)c2Cl)cc1=O [Compound I-005]
Second: N#Cc1cccc(Cn2cc(Cl)c(=O)cc2-c2cccc(C(F)(F)F)c2Cl)c1 [Compound I-013]
The IC50 of the first is higher: 0.5 to 1 µM for the first, 0.1 to 0.5 µM for the second.

`O=c1ccn(Cc2ccc(Oc3ccccc3)cc2)c(-c2cccc(C(F)(F)F)c2Cl)c1` [Compound I-070] and `O=c1ccn(Cc2ccc(-c3ccccc3)cc2)c(-c2cccc(C(F)(F)F)c2Cl)c1` [Compound I-043] fall in the same range of IC50: 1 to 10 µM for the first, 1 to 10 µM for the second.

`COc1cn(Cc2cccc(F)c2)c(-c2cccc(C(F)(F)F)c2Cl)nc1=O` [II-006] and `COc1cn(Cc2cccc(Cl)c2)c(-c2cccc(C(F)(F)F)c2Cl)nc1=O` [II-100] fall in the same range of IC50: 0.05 to 0.1 µM for the first, 0.05 to 0.1 µM for the second.

First: COc1cn(Cc2ccccc2Cl)c(-c2cccc(C(F)(F)F)c2Cl)nc1=O [II-095]
Second: COc1cn(Cc2ccccc2F)c(-c2cccc(C(F)(F)F)c2Cl)nc1=O [II-005]
The IC50 of the first is lower: less than 0.05 µM for the first, 0.05 to 0.1 µM for the second.

First: O=c1ccn(Cc2ccccc2S(=O)(=O)N2CCOCC2)c(-c2cccc(C(F)(F)F)c2Cl)c1 [Compound I-026]
Second: O=c1ccn(Cc2ccccc2F)c(-c2cccc(C(F)(F)F)c2Cl)c1 [Compound I-022]
The IC50 of the first is higher: 1 to 10 µM for the first, 0.1 to 0.5 µM for the second. The second is the more potent here.

First: O=c1ccn(Cc2ccccc2-c2ccccc2)c(-c2cccc(C(F)(F)F)c2Cl)c1 [Compound I-039]
Second: O=C(c1ccccc1)c1cccc(Cn2ccc(=O)cc2-c2cccc(C(F)(F)F)c2Cl)c1 [Compound I-069]
The IC50 of the first is higher: 1 to 10 µM for the first, 0.5 to 1 µM for the second. The second is the more potent here.

Compared with `CC(=O)COc1cn(Cc2ccccc2)c(-c2cccc(C(F)(F)F)c2Cl)nc1=O` [II-034], `CC1(COc2cn(Cc3ccccc3)c(-c3cccc(C(F)(F)F)c3Cl)nc2=O)COC1` [II-029] is higher in IC50: 0.05 to 0.1 µM for the first, 0.1 to 0.5 µM for the second.

Compared with `O=c1ccn(CCc2ccccc2)c(-c2cccc(C(F)(F)F)c2Cl)n1` [II-076], `CN(C)c1cn(Cc2ccccc2)c(-c2cccc(C(F)(F)F)c2Cl)nc1=O` [II-051] is lower in IC50: 1 to 10 µM for the first, 0.1 to 0.5 µM for the second. The second is the more potent here.

`COc1cn(Cc2cccc(C#N)c2)c(-c2cccc(C(F)(F)F)c2Cl)cc1=O` [Compound I-007] and `N#Cc1cccc(Cn2cc(Br)c(=O)cc2-c2cccc(C(F)(F)F)c2Cl)c1` [Compound I-003] fall in the same range of IC50: 0.1 to 0.5 µM for the first, 0.1 to 0.5 µM for the second.

`N#Cc1ccc(Cn2ccc(=O)cc2-c2cccc(C(F)(F)F)c2Cl)cc1` [Compound I-025] and `O=c1ccn(Cc2ccc(Cl)cc2)c(-c2cccc(C(F)(F)F)c2Cl)c1` [Compound I-041] fall in the same range of IC50: 1 to 10 µM for the first, 1 to 10 µM for the second.

`COc1cn(Cc2ccccc2)c(C2=CCCCCC2)nc1=O` [II-069] and `COc1cn(Cc2ccccc2)c(C2=CCSCC2)nc1=O` [II-072] fall in the same range of IC50: 1 to 10 µM for the first, 1 to 10 µM for the second.

`NC(=O)c1ccc(Cn2ccc(=O)cc2-c2cccc(C(F)(F)F)c2Cl)cc1` [Compound I-063] and `Cc1ccc(Cn2ccc(=O)cc2-c2cccc(C(F)(F)F)c2Cl)cc1` [Compound I-029] fall in the same range of IC50: 1 to 10 µM for the first, 1 to 10 µM for the second.

First: O=c1ccn(Cc2nc(C(F)(F)F)cs2)c(-c2cccc(C(F)(F)F)c2Cl)c1 [Compound I-066]
Second: O=c1ccn(Cc2ccccc2OC(F)(F)F)c(-c2cccc(C(F)(F)F)c2Cl)c1 [Compound I-030]
The IC50 of the first is higher: 1 to 10 µM for the first, 0.5 to 1 µM for the second.

First: COc1cn(Cc2ccncc2)c(-c2cccc(C(F)(F)F)c2Cl)nc1=O [II-020]
Second: COc1cn(Cc2cccc(C)c2)c(-c2cccc(C(F)(F)F)c2Cl)nc1=O [II-017]
The IC50 of the first is higher: 1 to 10 µM for the first, 0.1 to 0.5 µM for the second. The second is the more potent here.

Compared with `COc1cn(Cc2ccccc2)c(C2=C[C@H]3CC[C@@H]2C3)nc1=O` [II-071], `COc1cn(Cc2ccccc2)c(-c2ccc(C(F)(F)F)cc2Cl)nc1=O` [II-088] is lower in IC50: 1 to 10 µM for the first, 0.5 to 1 µM for the second.

`CS(=O)(=O)Nc1cn(Cc2ccccc2)c(-c2cccc(C(F)(F)F)c2Cl)nc1=O` [II-047] and `O=c1nc(-c2cccc(C(F)(F)F)c2Cl)n(Cc2ccccc2)cc1C(F)(F)F` [II-036] fall in the same range of IC50: 0.1 to 0.5 µM for the first, 0.1 to 0.5 µM for the second.

First: COc1cn(Cc2cccc(C#N)c2)c(-c2cccc(C(F)(F)F)c2Cl)nc1=O [II-013]
Second: COc1ccccc1Cn1cc(C#N)c(=O)nc1-c1cccc(C(F)(F)F)c1Cl [II-092]
The IC50 of the first is higher: 0.1 to 0.5 µM for the first, less than 0.05 µM for the second.

First: O=c1ccn(Cc2cccc(OC(F)(F)F)c2)c(-c2cccc(C(F)(F)F)c2Cl)c1 [Compound I-031]
Second: COc1cccc(Cn2ccc(=O)cc2-c2cccc(C(F)(F)F)c2Cl)c1 [Compound I-057]
The IC50 of the first is higher: 1 to 10 µM for the first, 0.1 to 0.5 µM for the second. The second is the more potent here.

First: COc1cn(Cc2ccc(F)cc2C)c(-c2cccc(C(F)(F)F)c2Cl)nc1=O [II-007]
Second: COc1cn(Cc2ccccc2OC(F)(F)F)c(-c2cccc(C(F)(F)F)c2Cl)nc1=O [II-097]
The IC50 of the first is higher: 0.05 to 0.1 µM for the first, less than 0.05 µM for the second.

First: Cc1ccccc1Cn1cc(OCC(F)(F)F)c(=O)nc1-c1cccc(C(F)(F)F)c1Cl [II-089]
Second: O=C(Nc1cn(Cc2ccccc2)c(-c2cccc(C(F)(F)F)c2Cl)nc1=O)OCC(F)(F)F [II-054]
The IC50 of the first is lower: less than 0.05 µM for the first, 0.1 to 0.5 µM for the second. The first is the more potent here.

Compared with `COc1cn(Cc2ccccc2C)c(-c2cccc(C(F)(F)F)c2)nc1=O` [II-065], `COc1cn(Cc2ccccc2C)c(-c2ccc(-c3ccccc3)cc2)nc1=O` [II-067] is higher in IC50: 0.1 to 0.5 µM for the first, 1 to 10 µM for the second.

`N#Cc1cccc(Cn2ccc(=O)cc2-c2cccc(C(F)(F)F)c2Cl)c1` [Compound I-024] and `O=c1ccn(Cc2cccc(F)c2)c(-c2cccc(C(F)(F)F)c2Cl)c1` [Compound I-027] fall in the same range of IC50: 0.5 to 1 µM for the first, 0.5 to 1 µM for the second.

`O=c1ccn(Cc2cccc(=O)[nH]2)c(-c2cccc(C(F)(F)F)c2Cl)c1` [Compound I-034] and `N#Cc1ccccc1Cn1ccc(=O)cc1-c1cccc(C(F)(F)F)c1Cl` [Compound I-023] fall in the same range of IC50: 0.5 to 1 µM for the first, 0.5 to 1 µM for the second.

`N#CCOc1cn(Cc2ccccc2)c(-c2cccc(C(F)(F)F)c2Cl)cc1=O` [Compound I-073] and `CC(C#N)Oc1cn(Cc2ccccc2)c(-c2cccc(C(F)(F)F)c2Cl)nc1=O` (centres unmarked) [II-041] cannot be ordered by IC50: less than 0.05 µM for the first, less than 0.05 µM for the second.

For `Cc1ccccc1Cn1ccc(=O)cc1-c1cccc(Cl)c1Cl` [Compound I-016], the IC50 was 0.1 to 0.5 µM.
